In patent US20100190187A1, “Screening Assays for Antagonists and Analyses of Cardiac Hypertrophy” (The Regents of the University of Michigan Office of …, priority 2006, published 2010):

Tested on: HL-1 cells
Test: Immunofluorescence staining of hypertrophy related proteins in HL-1 cells
Assay type: cell-based, murine
Details: FIG. 12
Excerpt: (§1) Immunofluorescent staining of HL-1 cells can be carried out in a method similar to that previously described (Tevosian et al., 1999), except that 0.5% CHAPS (Fisher) can be used instead of Triton X-100. Briefly, HL-1 cells grown on 2-well slides (Lab-Tek) are initially preserved with Sprayfix cytology fixative. To prepare for staining, the slides are washed in EtOH and water, and then briefly washed with PBS. Cells were fixed with cold acetone, rinsed with PBS, and permeabilized by three ten minute washes with 0.5% CHAPS/PBS. Next, the cells are blocked overnight with 5% milk/10% goat serum/PBS. The permeabilization step is then repeated prior to incubation with the primary antibody in 10% goat serum/0.5% CHAPS/PBS with the antibodies and dilutions listed below. After a one-hour incubation with the primary antibodies, the slides are washed three times in the 10% goat serum/0.5% CHAPS/PBS, then three times in 0.5% CHAPS/PBS. Secondary antibodies, as described below, can be incubated for one-hour with 1% BSA/0.5% CHAPS/PBS. After washing with 0.5% CHAPS/PBS the cells are stained for five minutes with 4,6-diamidine-2-phenylidole-dihydrochloride (DAPI Nucleic Acid Stain; Invitrogen) and cover slips are mounted with Prolong Gold anti-fade reagent (Invitrogen). The following antibody combinations can be used: rabbit anti-mouse VDR (sc-1008; Santa Cruz Biotech; 1:100 dilution), rabbit anti-mouse ANP (AB 5490; Chemicon; 1:50 dilution), and rabbit anti-mouse c-myc (sc-764; Santa Cruz Biotech; 1:100 dilution), all followed by FITC conjugated goat anti-rabbit (AP 307F; Chemicon; 1:400). Mouse monoclonal anti-myotrophin (V 11220, BD Transduction Laboratory; 1:50) followed by FITC conjugated goat anti-mouse (F-0257; Sigma; 1:128), and goat anti-mouse calbindin-9 (sc-18038. Santa Cruz Bio; 1:100) followed by FITC conjugated rabbit anti-goat (AP 106F; Chemicon; 1:100). Slides can be analyzed on an Olympus BX 51 immunofluorescence microscope and photomicrographs can be recorded as digital images.
as §1, with “incubation” for “incubation with the primary antibodies,”, “The following antibody combinations can be used: rabbit anti-mouse VDR (sc-1008; Santa Cruz Biotech; 1:100 dilution), rabbit anti-mouse ANP (AB 5490; Chemicon; 1:50 dilution), and rabbit anti-mouse c-myc (sc-764; Santa Cruz Biotech; 1:100 dilution), all followed by FITC conjugated goat anti-rabbit (AP 307F; Chemicon; 1:400). Mouse monoclonal anti-myotrophin (V 11220, BD Transduction Laboratory; 1:50) followed by FITC conjugated goat anti-mouse (F-0257; Sigma; 1:128), and goat anti-mouse calbindin-9 (sc-18038. Santa Cruz Bio; 1:100) followed by FITC conjugated rabbit anti-goat (AP 106F; Chemicon; 1:100).” left out

**Q.** Which results are given for `C=C1CC[C@H](O)C/C1=C/C=C1\CCC[C@]2(C)[C@@H]([C@H](C)CCCC(C)C)CC[C@@H]12` [Vitamin D3]?
**A.** expression of ANP: inhibited or reduced the expression; expression of VDR: increased the expression; expression of c-myc: inhibited or reduced the expression; expression of calbindin 9: inhibited or reduced the expression; expression of myotrophin: increased the expression
